{"source": "paper PMC6253949", "about": "“The Inhibitory Action of Kohamaic Acid A Derivatives on Mammalian DNA Polymerase β” (Molecules, 2008)", "key": {"T4 DNA polymerase": {"molecular_target": "T1, T4 DNA polymerase (Enterobacteria phage T4, UniProt P04415)", "T1 construct": "purchased Takara (Kyoto, Japan)", "T1 sequence (P04415 1-898)": "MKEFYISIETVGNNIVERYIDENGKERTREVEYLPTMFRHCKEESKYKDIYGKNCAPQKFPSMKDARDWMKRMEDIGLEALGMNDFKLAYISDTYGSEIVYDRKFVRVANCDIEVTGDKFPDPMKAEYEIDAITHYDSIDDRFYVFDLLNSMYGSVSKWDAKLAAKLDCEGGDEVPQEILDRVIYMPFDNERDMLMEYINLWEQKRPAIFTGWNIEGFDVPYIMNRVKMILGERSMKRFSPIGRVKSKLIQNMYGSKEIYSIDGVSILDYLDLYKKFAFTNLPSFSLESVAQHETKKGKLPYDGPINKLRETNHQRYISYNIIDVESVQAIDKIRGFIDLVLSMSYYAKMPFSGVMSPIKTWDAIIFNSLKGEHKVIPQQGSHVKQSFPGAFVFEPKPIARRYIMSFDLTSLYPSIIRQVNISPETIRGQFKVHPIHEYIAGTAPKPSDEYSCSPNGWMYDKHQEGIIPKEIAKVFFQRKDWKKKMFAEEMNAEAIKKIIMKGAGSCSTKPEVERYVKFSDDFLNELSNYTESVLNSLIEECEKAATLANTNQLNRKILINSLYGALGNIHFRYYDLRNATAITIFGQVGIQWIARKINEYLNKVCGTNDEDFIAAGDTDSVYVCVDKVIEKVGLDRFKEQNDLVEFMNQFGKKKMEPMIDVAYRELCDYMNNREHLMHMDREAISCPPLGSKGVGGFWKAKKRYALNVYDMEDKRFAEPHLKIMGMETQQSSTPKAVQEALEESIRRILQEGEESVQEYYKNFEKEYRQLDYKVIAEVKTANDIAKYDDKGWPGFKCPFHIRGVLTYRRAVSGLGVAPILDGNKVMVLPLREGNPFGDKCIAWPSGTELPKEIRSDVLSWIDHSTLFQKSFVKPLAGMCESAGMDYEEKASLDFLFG", "assay": "DNA polymerase assay, T4 pol", "assay_type": "biochemical", "from_the_text": "(§1) Pol α was purified from calf thymus by immuno-affinity column chromatography as described by Tamai et al.. Recombinant rat pol β was purified from E. coli JMpβ5 as described by Date et al.. The human pol γ catalytic gene was cloned into pFastBac. Histidine-tagged enzyme was expressed using the BAC-TO-BAC HT Baculovirus Expression System according to the supplier's manual (LIFE TECHNOLOGIES, MD, USA) and purified using ProBoundresin (Invitrogen Japan, Tokyo, Japan). Human pols δ and ε were purified by the nuclear fractionation of human peripheral blood cancer cells (Molt-4) using the second subunit of pols δ and ε-conjugated affinity column chromatography, respectively. Recombinant human pols η and ι tagged with His6 at their C-terminal were expressed in SF9 insect cells using the baculovirus expression system, and were purified as described previously. A truncated form of pol κ (i.e., hDINB1DC) with 6 x His-tags attached at the C-terminal was overproduced using the BAC-to-BAC Baculovirus Expression System kit (GIBCO BRL, MD, USA) and purified as described previously. […]\nFor pols, poly(dA)/oligo(dT)12-18 (A/T = 2/1) and dTTP were used as the DNA template-primer and nucleotide (i.e., dNTP) substrate, respectively. […] Activity without the inhibitor was considered 100%, and the remaining activity at each concentration of the inhibitor was determined relative to this value. […]"}, "T4 Polynucleotide kinase": {"molecular_target": "T2, T4 Polynucleotide kinase (Enterobacteria phage T4, UniProt P06855)", "T2 construct": "purchased Takara (Kyoto, Japan)", "T2 sequence (P06855 whole entry)": "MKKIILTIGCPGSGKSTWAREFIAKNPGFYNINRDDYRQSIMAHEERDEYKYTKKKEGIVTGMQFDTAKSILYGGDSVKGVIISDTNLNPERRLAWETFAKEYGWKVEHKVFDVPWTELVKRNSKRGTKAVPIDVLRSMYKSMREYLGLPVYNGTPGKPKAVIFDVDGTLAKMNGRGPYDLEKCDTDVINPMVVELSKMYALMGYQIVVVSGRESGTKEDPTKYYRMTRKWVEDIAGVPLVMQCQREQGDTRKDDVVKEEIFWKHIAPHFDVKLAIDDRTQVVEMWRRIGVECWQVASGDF", "assay": "T4 polynucleotide kinase assay", "assay_type": "biochemical", "from_the_text": "as §1\nThe primase activity of calf pol α, the activities of T7 RNA polymerase, T4 polynucleotide kinase and bovine DNase I were measured in standard assays according to the manufacturer's specifications as described by Tamiya-Koizumi et al., Nakayama et al., Soltis et al., and Lu and Sakaguchi, respectively."}}}
{"smiles": "CC1=CC[C@H]2C(C)(C)CCC[C@]2(C)[C@H]1CCCCCCCCCCCCCCCCC(=O)O", "note": "(relative stereo) [compound 11, (1S*,4aS*,8aS*)-17-(1,4,4a,5,6,7,8,8a-octahydro-2,5,5,8a-tetramethylnaphthalen-1-yl)heptadecanoic acid]", "values": [{"measurement": "IC50", "setting": "T4 DNA polymerase", "result": "> 200", "unit": "µM"}, {"measurement": "IC50", "setting": "T4 Polynucleotide kinase", "result": "> 200", "unit": "µM"}]}
